Data: patent publication US20180296559A1, “TREATMENT OF AIRWAY SMOOTH MUSCLE DYSFUNCTION” (priority 2016, published 2018)

Key:
[1] = test system: tracheal airway smooth muscle strips; assay: Airway smooth muscle strip isometric force generation following acetylcholine; assay type: cell-based, pig
Description: FIG. 2. NVP-TAE684 decreases airway smooth muscle force generation. Wild-type airway smooth muscle strip isometric force generation following acetylecholine treatment in muscle strips pretreated with control vehicle (DMSO, black circles) or NVP-TAE684 (grey circles) (n=5 animals per group). Data are shown as mean values with SEM and are fitted with a four-parameter logistic regression algorithm (solid line).
Airway smooth muscle tissue and cells. Trachea from newborn WT […] or CFTR^−/− pigs was excised and placed in modified Krebs Solution containing (mM): 120.8 NaCl, 5.9 KCl, 0.2 CaCl2, 1.2 MgCl2, 1.2 NaH2PO4, 2 NaHCO3, 11 d-glucose, and 10 HEPES, pH 7.4. The trachealis muscle was dissected by removing the cartilage and epithelial layers. For force measurements, strips of trachealis smooth muscle were hung in a tissue perfusion system (Radnoti LLC, Monrovia, Calif.). For cell isolation, the remaining medial layers were minced and digested using a papain dissociation system (Worthington, Lakewood, N.J.) based upon previous studies (10). The minced smooth muscle was suspended in Earle's balanced salt solution (EBSS) containing papain (10 U/ml) and DNase (1000 U/ml) and incubated at 37° C. for 1 hr. Collagenase (0.5mg/m1) was added and after 1 hr the mixture triturated. Primary cells were grown to confluence in a 1:1 mixture of DMEM and Ham's F12 on fibrinogen-coated 6-well plates. All solutions contained 100 U/ml penicillin and 0.1 mg/ml streptomycin. Primary culture cells were allowed to grow for 8-10 d until confluent. […]
Measurement of airway smooth muscle force generation. […] The contractile activity was recorded with Grass isometric force transducers and amplifiers connected to a Biopac data acquisition system (Biopac Systems, Goleta, Calif.). […] The smooth muscle force from NVP-TAE684 or DMSO pretreated strips was determined by obtaining concentration-response curves to acetylcholine (10^−9 to 10^−2 M) in the muscle bath. […]

wild-type mice [2] = assay: In vivo airway resistance following methacholine challenge; settings: 100 μl of 5 mM, intraperitoneal, daily for 3 days, vs vehicle
Description: FIG. 3. In vivo treatment with NVP-TAE684 decreases cholinergic induced airway hyper-responsiveness. Mice were pretreated with control vehicle (DMSO, black circles) or NVP-TAE684 (grey circles) for 3 days (n=10 animals per group). Airway resistance following methacholine treatment was then determined. Data are shown as mean values with SEM and are fitted with a four-parameter logistic regression algorithm (solid line).
Measurement of in vivo airway resistance. WT mice were pretreated with either PYK2 inhibitor NVP-TAE684 (100 μl of 5 mM, 1% DMSO) or vehicle (1% DMSO) was given via intra-peritoneal injections daily for 3 days prior and including the day of pulmonary measurements. Mice were anesthetized with ketamine (50 or 100 mg/kg) and xylazine (0-10 mg/kg). Following tracheotomy, an 18-gauge cannula was inserted and securely tied with 4.0 braided silk. The animals were then mechanically ventilated with a computer-controlled small-animal ventilator (FlexiVent, SCIREQ, Montreal, Quebec) using a tidal volume of 8 mL/kg at a rate of 180 breaths/min and PEEP of 3.5 cm H2O. Pulmonary resistance was measured by the computer controlled ventilator by interrupting ventilation and imposing broadband low-frequency oscillatory waveforms and then resuming ventilation. […]

[3] = test system: porcine precision cut lung slices; assay: Airway contraction in precision cut lung slices in response to methacholine; assay type: cell-based; settings: WT newborn pig lung slices pretreated overnight with 10 μM compound vs DMSO
Description: FIG. 1. NVP-TAE684 decreases airway contraction in porcine precision cut lung slices. Percent airway lumen area contraction in response to methacholine in porcine precision cut lung slices pretreated with control vehicle (DMSO, black circles) or NVP-TAE684 (grey circles), normalized to maximal contractile response (n=6 animals per group). Data are shown as mean values with SEM and are fitted with a four-parameter logistic regression algorithm (solid line).
Precision cut lung slice preparation. Precision cut lung slices were isolated as previously described (11) from wild type newborn pigs. Lung slice culture media consisted of Dulbecco's Modified Eagle Medium (Gibco, Big Cabin, Okla.), 10% fetal bovine serum (Gibco, Big Cabin, Okla.), 1% penicillin-streptomycin (5,000 U/mL, Gibco, Big Cabin, Okla.), and 0.1% gentamicin (50 mg/mL, Gibco, Big Cabin, Okla.).
For the porcine lung slice studies, the tracheal bronchus from collected tracheal lobes was cannulated with a 24 G IV catheter (BD Medical) and a tight seal was created using suture. The tracheal lobe was instilled with approximately 10 mL of 2% UltraPure Low Melting Point agarose (Invitrogen, Carlsbad, Calif.) solution and cooled at −20° C. for 30 min. […] For all PCLS experiments, maximal airway contraction was analyzed for each dose by lumen area measurements performed in ImageJ (NIH). […]

wild-type mice [4] = assay: Morphologic analysis of histological sections of treated mice; assay type: in vivo
Recombinant human PYK2 = Recombinant human PYK2 (Homo sapiens, UniProt Q14289); assay: ADP-based phosphatase-coupled kinase assay (malachite green); assay type: biochemical; settings: 10, 25, or 100 μM compound vs DMSO; PYK2 0.5 and 2 μg/ml
Sequence of Recombinant human PYK2 (Q14289 whole entry): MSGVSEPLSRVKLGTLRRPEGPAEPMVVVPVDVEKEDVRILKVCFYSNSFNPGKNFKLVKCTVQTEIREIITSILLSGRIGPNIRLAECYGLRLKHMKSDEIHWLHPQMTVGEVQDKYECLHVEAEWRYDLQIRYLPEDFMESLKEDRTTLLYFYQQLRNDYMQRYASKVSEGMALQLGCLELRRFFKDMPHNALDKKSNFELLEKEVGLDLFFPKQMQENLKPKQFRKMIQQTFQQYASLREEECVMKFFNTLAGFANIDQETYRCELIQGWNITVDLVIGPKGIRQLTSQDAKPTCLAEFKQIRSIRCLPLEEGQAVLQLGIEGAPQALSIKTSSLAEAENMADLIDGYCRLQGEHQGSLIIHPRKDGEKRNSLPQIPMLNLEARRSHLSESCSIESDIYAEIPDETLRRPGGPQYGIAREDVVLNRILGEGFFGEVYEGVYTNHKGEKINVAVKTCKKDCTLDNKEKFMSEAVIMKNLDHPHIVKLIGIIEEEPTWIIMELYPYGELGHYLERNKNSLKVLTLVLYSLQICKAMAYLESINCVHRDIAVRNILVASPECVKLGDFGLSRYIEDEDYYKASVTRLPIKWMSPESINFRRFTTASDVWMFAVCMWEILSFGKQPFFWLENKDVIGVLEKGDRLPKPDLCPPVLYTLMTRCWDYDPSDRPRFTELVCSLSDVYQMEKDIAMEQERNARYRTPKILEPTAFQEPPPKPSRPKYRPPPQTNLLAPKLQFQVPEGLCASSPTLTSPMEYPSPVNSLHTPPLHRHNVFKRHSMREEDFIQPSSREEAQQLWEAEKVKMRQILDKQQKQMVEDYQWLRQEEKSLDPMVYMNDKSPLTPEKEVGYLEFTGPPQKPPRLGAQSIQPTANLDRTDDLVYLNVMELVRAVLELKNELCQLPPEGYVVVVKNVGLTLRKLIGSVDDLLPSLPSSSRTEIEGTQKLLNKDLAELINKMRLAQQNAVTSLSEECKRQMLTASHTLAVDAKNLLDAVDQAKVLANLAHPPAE
Description: FIG. 4. Recombinant human PYK2 was treated with either DMSO or 10, 25, or 100 μM ceritinib. PYK2 activity was measured by using an ADP-based phosphatase-coupled kinase assay. ADP from PYK2 activity releases an inorganic phosphate via a coupling enzyme and is detected using malachite green reagent. The amount of inorganic phosphate released is proportional to the amount of ADP generated during the kinase reaction. Two concentrations of PYK2 (0.5 and 2 μg/ml) were tested.

[5] = pretreated with 10 μM compound vs DMSO

| PYK-2 activity (Recombinant human PYK2) | Structure (SMILES) | maximal force production ([1]; newborn WT pig tracheal muscle strips pretreated with 10 μM compound, acetylcholine dose response) [mN] | force generation in tracheal smooth muscle strips across all doses of acetylcholine [1, 5] | median effective concentrations of acetylcholine, compound-pretreated vs DMSO-pretreated strips [1, 5] | respiratory response to inhaled methacholine (airway resistance) (wild-type mice [2]) | airway narrowing in response to increasing dosages of methacholine, measured by luminal area [3] | drug-induced toxicity in histological sections of heart, kidney, and liver (wild-type mice [4]; mouse, in vivo) | changes in epithelia, cartilage or airway smooth muscle layers (lung parenchyma, conducting airways, trachea sections) (wild-type mice [4]; treated mice vs vehicle control mice) |
| --- | --- | --- | --- | --- | --- | --- | --- | --- |
| – | COc1cc(N2CCC(N3CCN(C)CC3)CC2)ccc1Nc1ncc(Cl)c(Nc2ccccc2S(=O)(=O)C(C)C)n1 [NVP-TAE684] | 40 | decreased force generation | no significant differences | significantly decreased | decreased the airway narrowing | no evidence of drug-induced toxicity | no significant changes |
| dose-dependent decrease | Cc1cc(Nc2ncc(Cl)c(Nc3ccccc3S(=O)(=O)C(C)C)n2)c(OC(C)C)cc1C1CCNCC1 [ceritinib] | – | – | – | – | – | – | – |
